Results taken from patent publication US20200325109A1, “IMINO-UREA DERIVATIVES” (Lunan Pharmaceutical Group Corporation, priority 2017, published 2020).
Where two headings read alike, the source gives them in different places.

Assays:
LLC tumors = experiment: In vivo antitumor activity test, LLC tumors in mice; design: Tumor inhibition rate: concentration or dose not given beside the values; settings: LLC tumors in C57BL6 mice, once per day, 21 days; for Tumor weight: CTX intraperitoneal 150 mg·kg^−1, compounds intragastric; for Tumor inhibition rate: from average tumor weight vs model group
[1] = Effects of compounds on body weight of mice in the LLC tumor test; settings: LLC tumor-bearing mice
[2] = molecular target: T1, human indoleamine 2,3-dioxygenase (Homo sapiens, UniProt P14902); experiment: Determination of the activity for inhibiting indoleamine 2,3-dioxygenase and IC50; format: biochemical; settings: purified human IDO, 200 μM L-tryptophan, 37° C., 60 minutes, pH 6.5
T1 construct: made in house; host or cells: E. coli
T1 sequence (P14902 whole entry): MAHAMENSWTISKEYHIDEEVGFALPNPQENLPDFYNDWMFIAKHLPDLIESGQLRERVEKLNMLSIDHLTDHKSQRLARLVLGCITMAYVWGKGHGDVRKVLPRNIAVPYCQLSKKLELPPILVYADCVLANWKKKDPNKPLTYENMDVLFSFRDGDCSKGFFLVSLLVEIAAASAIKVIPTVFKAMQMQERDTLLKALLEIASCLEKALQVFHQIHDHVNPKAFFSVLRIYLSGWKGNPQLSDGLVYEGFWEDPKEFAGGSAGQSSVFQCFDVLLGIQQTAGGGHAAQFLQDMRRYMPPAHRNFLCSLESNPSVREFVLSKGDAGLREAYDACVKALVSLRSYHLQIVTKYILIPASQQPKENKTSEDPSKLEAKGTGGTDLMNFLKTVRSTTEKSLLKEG

[3] = system: mice with Alzheimer (AD model); experiment: Morris water maze detection of behavioral changes in mice with Alzheimer; format: in vivo; settings: for Number of stays / Time of stay: spatial probe test, sixth day
Method: Mouse behavioral analysis was performed using a Morris water maze (Ethovision XT monitoring and analysis software, Morris water maze system, from Noldus, Netherlands). The water maze test process was divided into two parts, hidden platform acquisition test for consecutive 5 days, and spatial probe test on the sixth day, the mice were administered according to the test groups and the design doses before each test. The mice were trained 4 times a day, each time the mice were dived in different areas, the water maze was divided into areas 1, 2, 3 and 4 according to the south, east, north and west, and the platform was the 5th area located in the 4th area. […] The hidden platform acquisition test was used to detect the learning ability of mice, while the spatial probe test was used to detect the spatial memory ability of mice.
Using the statistical analysis software SPSS16.0, the escape latent period of the hidden platform acquisition test was analyzed by variance of multiple measures; and the swimming time in each quadrant and the number of crossing target in the spatial probe test were analyzed by one-way analysis of variance. The data were expressed as mean±standard deviation, and the significant level of difference was set as bilateral P=0.05.

[4] = system: DC-stimulated T cell proliferation; experiment: DC-stimulated T cell proliferation assay (MLR); format: cell-based, human; settings: MTT, A570 nm, 72 hours
Method: The human peripheral blood leukocyte layer was taken and diluted with same volume of 0.01 mol/L PBS. PBMC was routinely isolated with a lymphocyte separation medium, and the cell concentration was adjusted to 3×10^6 ml^−1 in a complete RPMI1640 medium; the cells were added to a 6-well plate, 3 ml per well, and cultured in a 5% CO2, 37° C. incubator for 2 hours, washed with PBS for 3 times to remove non-adherent cells, then added with a culture medium containing IL-4 (100 U/ml), GM-CSF (150 ng/ml) and TNF-α (500 U/ml), and then routinely cultured, the medium was changed for half every other day. After 8 days of culture, the cells were used for identification and experiment.
The human PBMC layer was separated by the method in the step 1. The macrophages were removed by the adherence method, the B cells were removed by the nylon wool fiber syringe method, and the obtained T cells were adjusted to a cell concentration of 1×10^6 cells/ml.
The mature DCs with a purity of 99% were centrifuged, added with RPMI1640 to adjust the cell concentration to 1×10^5, 4×10^4, 2×10^4/ml, and added to a 96-well plate, two wells for each concentration, 100 μl/well.
T cells were added to DCs of each of the above drug-added groups, 100 μl/well, cultured in a 5% CO2, 37° C. incubator for 72 hours; for each well, 100 μl of the culture solution was gently sucked out 6 hours before the end of the culture, and 10 μl of MTT (5 mg/ml) was added, further cultured in incubator for 6 hours, then 100 μl of 0.01 mol/L HCl-10% SDS was added, stood at 37° C. overnight, and the absorbance value (A570 nm) was determined by a microplate to show the T cell proliferation level.

[5] = mouse, in vivo

O=P1(N(CCCl)CCCl)NCCCO1 (stereo not shown) [CTX, cyclophosphamide, reference compound]
Tumor weight (LLC tumors): 0.701 ± 0.314 g | Tumor inhibition rate (LLC tumors): 53.7% | Average body weight after test ([1]; after test (21 days of administration)): 19 ± 3.3 g | Average body weight before test ([1]; before test): 22 ± 3.1 g

N=C(N)NCCNc1nonc1/C(=N/O)Nc1ccc(F)c(Br)c1 [Example 3047]
IC50 [2]: 37 nM | Tumor weight (LLC tumors): 0.370 ± 0.209^##※ g | Tumor inhibition rate (LLC tumors): 75.6% | Latent period for searching platform in hidden platform test ([3]; 1st Day): 52.3 ± 5.2 s | Latent period for searching platform in hidden platform test ([3]; 2nd Day): 44.0 ± 4.4 s | Latent period for searching platform in hidden platform test ([3]; 3th Day): 22.1 ± 4.5^##※ s | Number of stays ([3]; 4th Area): 13.0 ± 1.5^##※ times | Time of stay ([3]; 4th Area): 25.9 ± 5.2^##※ s | Latent period for searching platform in hidden platform test ([3]; 4th Day): 10.5 ± 5.7^##※ s | Number of stays ([3]; 5th Area (platform)): 3.8 ± 0.6^##※ times | Time of stay ([3]; 5th Area (platform)): 5.9 ± 0.7^##※ s | Latent period for searching platform in hidden platform test ([3]; 5th Day): 5.4 ± 6.0^##※※ s | T:DC (absorbance value) ([4]; T:DC 10:1): 0.864 ± 0.006^##※ | T:DC (absorbance value) ([4]; T:DC 25:1): 0.834 ± 0.004^##※ | T:DC (absorbance value) ([4]; T:DC 50:1): 0.825 ± 0.007^##※ | Average body weight before test [5]: 22 ± 3.4 g

N=C(N)NCCCNc1nonc1/C(=N/O)Nc1ccc(F)c(Br)c1 [Example 3048]
IC50 [2]: 20 nM

CNC(=N)NCCNc1nonc1/C(=N/O)Nc1ccc(F)c(Br)c1 [Example 3049]
IC50 [2]: 22 nM

CC(C)(C)OC(=O)N=C(NCCNc1nonc1/C(=N/O)Nc1ccc(F)c(Br)c1)NC(=O)OC(C)(C)C [Example 3051]
IC50 [2]: 23 nM

CC(C)(C)OC(=O)N=C(N)NCCCNc1nonc1/C(=N/O)Nc1ccc(F)c(Br)c1 [Example 3053]
IC50 [2]: 16 nM

NS(=O)(=O)NCCNc1nonc1C(=Nc1ccc(F)c(Br)c1)NO [INCB024360, reference compound]
Tumor weight (LLC tumors): 0.653 ± 0.178 g | Tumor inhibition rate (LLC tumors): 56.9% | Latent period for searching platform in hidden platform test ([3]; 1st Day): 53.2 ± 2.3 s | Latent period for searching platform in hidden platform test ([3]; 2nd Day): 51.4 ± 4.8 s | Latent period for searching platform in hidden platform test ([3]; 3th Day): 38.6 ± 5.5 s | Number of stays ([3]; 4th Area): 8.4 ± 1.0 times | Time of stay ([3]; 4th Area): 16.2 ± 2.4 s | Latent period for searching platform in hidden platform test ([3]; 4th Day): 28.7 ± 3.9 s | Number of stays ([3]; 5th Area (platform)): 2.1 ± 0.4 times | Time of stay ([3]; 5th Area (platform)): 3.9 ± 0.7 s | Latent period for searching platform in hidden platform test ([3]; 5th Day): 19.9 ± 6.7 s | T:DC (absorbance value) ([4]; T:DC 10:1): 0.830 ± 0.002 | T:DC (absorbance value) ([4]; T:DC 25:1): 0.804 ± 0.004 | T:DC (absorbance value) ([4]; T:DC 50:1): 0.799 ± 0.003

CCC(=O)NC(=N)NCCNc1nonc1/C(=N/O)Nc1ccc(F)c(Br)c1 [XSD3-052]
IC50 [2]: 343 nM

N=C(NCCNc1nonc1/C(=N/O)Nc1ccc(F)c(Br)c1)NS(=O)(=O)c1ccccc1 [XSD3-058]
IC50 [2]: 57 nM | Tumor weight (LLC tumors): 0.400 ± 0.112 g | Tumor inhibition rate (LLC tumors): 72.3% | Latent period for searching platform in hidden platform test ([3]; 1st Day): 45.3 ± 3.7 s | Latent period for searching platform in hidden platform test ([3]; 2nd Day): 41.3 ± 3.2 s | Latent period for searching platform in hidden platform test ([3]; 3th Day): 25.4 ± 4.6 s | Number of stays ([3]; 4th Area): 13.3 ± 1.8 times | Time of stay ([3]; 4th Area): 25.2 ± 4.2 s | Latent period for searching platform in hidden platform test ([3]; 4th Day): 15.5 ± 4.9 s | Number of stays ([3]; 5th Area (platform)): 3.5 ± 0.9 times | Time of stay ([3]; 5th Area (platform)): 5.9 ± 0.6 s | Latent period for searching platform in hidden platform test ([3]; 5th Day): 7.3 ± 6.1 s | T:DC (absorbance value) ([4]; T:DC 10:1): 0.880 ± 0.003 | T:DC (absorbance value) ([4]; T:DC 25:1): 0.849 ± 0.002 | T:DC (absorbance value) ([4]; T:DC 50:1): 0.831 ± 0.002 | body weight compared with the model group [5]: no significant difference in body weight

N/C(=N\C(=O)C1CC1)NCCNc1nonc1/C(=N/O)Nc1ccc(F)c(Br)c1 [XSD3-065]
IC50 [2]: 118 nM

N/C(=N\C(=O)C1CCC1)NCCNc1nonc1/C(=N/O)Nc1ccc(F)c(Br)c1 [XSD3-066]
IC50 [2]: 132 nM

N/C(=N\C(=O)C1CCCC1)NCCNc1nonc1/C(=N/O)Nc1ccc(F)c(Br)c1 [XSD3-067]
IC50 [2]: 142 nM

N/C(=N\C(=O)C1CCCCC1)NCCNc1nonc1/C(=N/O)Nc1ccc(F)c(Br)c1 [XSD3-068]
IC50 [2]: 539 nM

N/C(=N\C(=O)CC1CC1)NCCNc1nonc1/C(=N/O)Nc1ccc(F)c(Br)c1 [XSD3-069]
IC50 [2]: 345 nM

N/C(=N/C(=O)CC1CCC1)NCCNc1nonc1/C(=N/O)Nc1ccc(F)c(Br)c1 [XSD3-070]
IC50 [2]: 345 nM

N/C(=N\C(=O)CC1CCCCC1)NCCNc1nonc1/C(=N/O)Nc1ccc(F)c(Br)c1 [XSD3-072]
IC50 [2]: 502 nM

N/C(=N\S(=O)(=O)c1ccccc1)NCCCNc1nonc1/C(=N/O)Nc1ccc(F)c(Br)c1 [XSD3-074]
IC50 [2]: 63 nM

N/C(=N\C(=O)C1CCCCC1)NCCCNc1nonc1/C(=N/O)Nc1ccc(F)c(Br)c1 [XSD3-078]
IC50 [2]: 145 nM

N/C(=N\C(=O)C1CCC1)NCCCNc1nonc1/C(=N/O)Nc1ccc(F)c(Br)c1 [XSD3-079]
IC50 [2]: 95 nM | Tumor weight (LLC tumors): 0.384 ± 0.092 g | Tumor inhibition rate (LLC tumors): 73.4% | Latent period for searching platform in hidden platform test ([3]; 1st Day): 40.5 ± 5.5 s | Latent period for searching platform in hidden platform test ([3]; 2nd Day): 39.3 ± 44 s | Latent period for searching platform in hidden platform test ([3]; 3th Day): 20.3 ± 4.2 s | Number of stays ([3]; 4th Area): 14.4 ± 1.3 times | Time of stay ([3]; 4th Area): 26.7 ± 3.3 s | Latent period for searching platform in hidden platform test ([3]; 4th Day): 17.7 ± 5.2 s | Number of stays ([3]; 5th Area (platform)): 3.9 ± 0.5 times | Time of stay ([3]; 5th Area (platform)): 5.8 ± 0.7 s | Latent period for searching platform in hidden platform test ([3]; 5th Day): 9.9 ± 5.2 s | T:DC (absorbance value) ([4]; T:DC 10:1): 0.876 ± 0.004 | T:DC (absorbance value) ([4]; T:DC 25:1): 0.850 ± 0.003 | T:DC (absorbance value) ([4]; T:DC 50:1): 0.837 ± 0.004 | body weight compared with the model group [5]: no significant difference in body weight

N/C(=N\C(=O)C1CCCC1)NCCCNc1nonc1/C(=N/O)Nc1ccc(F)c(Br)c1 [XSD3-080]
IC50 [2]: 87 nM

N/C(=N\C(=O)CC1CC1)NCCCNc1nonc1/C(=N/O)Nc1ccc(F)c(Br)c1 [XSD3-081]
IC50 [2]: 89 nM

N/C(=N\C(=O)CC1CCC1)NCCCNc1nonc1/C(=N/O)Nc1ccc(F)c(Br)c1 [XSD3-082]
IC50 [2]: 101 nM

N/C(=N\C(=O)CC1CCCCC1)NCCCNc1nonc1/C(=N/O)Nc1ccc(F)c(Br)c1 [XSD3-084]
IC50 [2]: 160 nM

N/C(=N\S(=O)(=O)CC1CCCCC1)NCCCNc1nonc1/C(=N/O)Nc1ccc(F)c(Br)c1 [XSD3-088]
IC50 [2]: 72 nM

N/C(=N\S(=O)(=O)CC1CCCCC1)NCCNc1nonc1/C(=N/O)Nc1ccc(F)c(Br)c1 [XSD3-089]
IC50 [2]: 67 nM

N/C(=N\C(=O)Cc1ccccc1)NCCNc1nonc1/C(=N/O)Nc1ccc(F)c(Br)c1 [XSD3-092]
IC50 [2]: 399 nM

N/C(=N\C(=O)Cc1ccc(Cl)cc1)NCCCNc1nonc1/C(=N/O)Nc1ccc(F)c(Br)c1 [XSD3-093-1]
IC50 [2]: 56 nM

N/C(=N\C(=O)Cc1ccc(F)cc1)NCCCNc1nonc1/C(=N/O)Nc1ccc(F)c(Br)c1 [XSD3-093-2]
IC50 [2]: 61 nM

COc1ccc(CC(=O)/N=C(\N)NCCCNc2nonc2/C(=N/O)Nc2ccc(F)c(Br)c2)cc1 [XSD3-093-3]
IC50 [2]: 76 nM

N/C(=N\C(=O)Cc1ccccc1)NCCCNc1nonc1/C(=N/O)Nc1ccc(F)c(Br)c1 [XSD3-093]
IC50 [2]: 44 nM
